The values below come from patent publication USRE36385E, “Glucopyranose derivatives” (Ono Pharmaceutical Co., Ltd., priority 1985, dated 1999).

The test system of one series is lympha cells. Nature of the series: Mitogenic activity in vitro (Blastogenic index). Particulars: Mus musculus, Lymphocyte. The format is cell-based, C3H/He male mice. How it is done:
(1) Mitogenic activity in vitro
Mitogenic activity means activity of activating mitogenic cell division, and in this test system, the amount of tymidine taken into lympha cells was measured and a ratio determined against a blank control call (Blastogenic index) was calculated.
For example, adding the compound prepared in example 1(c) to the test system induced 30 times the amount of tymidine taken into the lympha cells versus the control.
The amounts were measured by density of a radiolabel.
Mytogenic activity in vitro was measured by the following method (See Procedure Method of Immunoexperiment pp 315 published by Japan Immunology Society).
C3H/He male mice 6 weeks old were killed by bloodletting, and their spleens were isolated and homogenized. Homogenizing liquids were filtered with gauze, and suspending cells were prepared with PBS solution. After washing, lymphacytes fractions were gathered with lympholight M. Lymphacytes were suspended in RPMI 1640 cultivation solution (10% FEBS), and the solution was divided into 5×10^5 cells/180 μl/wells. Ten times concentration of the terminal concentration (1 μg/ml) of the compounds of the present invention were added with 20 μl portions to each of the wells.
After cultivation, ^3 H-tymidine 0.5 μCi/20 μl was added to the each cells. Cultivation was continued at 37° C. for another 24 hrs, and amounts of ^3 H-tymidine taken into the cells were measured. Mitogenic activities were calculated as by Blastogenic index in as follows. [formula]

In the next series the test system is Mice L-M cells. Nature of the series: Inducing activities of TNF in vitro (cytotoxicity of serum from treated mice). The format is cell-based, mice (ICR male mice serum; mice L-M cells). The conditions noted are these: Mus musculus, iv; 10 μg via tail vein, serum 90 mins after; L-M cells 48 hrs; read-out: Cytotoxicities. The method, then:
(2) Inducing activities of TNF in vitro
Inducing activity of TNF in vitro was measured by the following test system.
Corye parvum (manufactured by Ribi Immuno Chem. Research Inc.) was administered in ICR male mice 6-weeks old through the tail vein as priming agent. Ten days later, the compounds of the present invention (10 μg) were administered through tail vein as eliciting agent. 90 mins after the administration, blood was collected from the hearts, and blood serums were separated.
Mice L-M cells (10^4 /100 μl/well) suspended in a mixture of the diluted serum solution (100 μl/well) and RPMI 1640 cultivating solution (10% FEBS and 0.2% glucose; manufactured by Nissui Pharmaceutical Co.) were cultivated in an atmosphere of a mixed gas of 5% CO2 -[…], for 48 hrs at 37° C., after adding ^3 H-tymidine taken (0.5 μCi/20 μl/well). Amounts of ^3 H-tymidine taken into cells during the cultivation were measured.
Inducing activities of TNF were measured by cytotoxicity calculated as follows: [formula]

Another series deals with Meth-A sarcoma. Nature of the series: Anti-tumor effect on Balb/C mice inoculated with Meth-A Sarcoma. The format is in vivo, female Balb/C mice. The conditions noted are these: for Apperarent tumor weight: g ± standard error; for Survival period: iv tail vein Day 7, 9, 12, day ± standard error. How it is done:
(1) Anti-tumor effect on Balb/C mice inocudlated with Meth-A Sarcoma
Anti-tumor effect was measured by the following procedure.
Tumor cells which had been maintained in ascites of Balb/C mouse generation after generation was used. One group is consisting of eight female Balb/C mice. Meth-A sarcoma tumor (1×10^5 cells/0.05 ml) was inoculated into left side of female mice of 7-week old (body weight: 18-20 g). Seven day after, when tumor size came to 6~9 mm, test compound was administered into tail vein first (day 7) and then administered two times (total three times: Day 7, 9, 12). Dose of test compound is 3 and 10 mg/kg or 3, 10 and 30 mg/kg and each test compound solution volume was 10 ml/kg. Anti-tumor effect is estimated by survival period (from inoculation day to death day) and tumor apparent weight. [formula] Test results about survival period and tumor appearent weight are shown in the following Tables II(1) and II(2), respectively.
In experiments, statistic analysis was done with unpaired Student's t(two tailed)-test. […] P values lower than 0.05 were judged to be significant.

A short description of series [1]: Acute toxicity (LD50), intravenous in mice. The conditions noted are these: mouse, in vivo. The method, then: For example, the values of LD50 of the compound prepared in example 1(c) was more than 300 mg/kg animal body weight by intravenous administration in mice.
Where [2] appears, read: terminal concentration 1 μg/ml, ratio of 3H-tymidine uptake vs blank control, read-out: Blastgenic Index.

Like-named read-outs stand apart in the source and are kept apart here. Some results are limits rather than exact numbers.

Take `CCCCCCCCCCCCCC(=O)O[C@H]1[C@H](OS(=O)(=O)O)[C@@H](CO)OC(O)[C@@H]1NC(=O)c1ccc(OCCCCCCCCCC)c(OCCCCCCCCCC)c1` (stereo partly drawn) [Example 4, 2-deoxy-2-(3,4-didecyloxybenzoyl)amino-3-O-tetradecanoyl-4-O-sulfo-D-glycopyranose]: the fold induction at 1 µg/mL in the series with lympha cells (setting [2]) was 27.7. The cytotoxicity at 0.01 mg in the series on Mice L-M cells is 20%. The Apperarent tumor weight in the series with Meth-A sarcoma (3 mg/kg iv, Day 7) is recorded as 0.212 ± 0.042 g; with Meth-A sarcoma (3 mg/kg iv, Day 10), 0.469 ± 0.169 g; in the series on Meth-A sarcoma (3 mg/kg iv, Day 13), 0.650 ± 0.162 g; in the series on Meth-A sarcoma (3 mg/kg iv, Day 16), 1.004 ± 0.434 g; in the series with Meth-A sarcoma (10 mg/kg iv, Day 7) it was 0.205 ± 0.022 g; in the series on Meth-A sarcoma (10 mg/kg iv, Day 10) it was 0.361 ± 0.056 g. The Apperarent tumor weight in the series on Meth-A sarcoma (10 mg/kg iv, Day 13) was 0.455 ± 0.116 g; in the series on Meth-A sarcoma (10 mg/kg iv, Day 16) it was 0.846 ± 0.233 g. For the same compound, in the series on Meth-A sarcoma (at the dose of 3 mg/kg), the “effect on prolongation of life” value is recorded as “significant effect”. Further, the “effect on tumore regression” value with Meth-A sarcoma (at the dose of 3 mg/kg) was “significant effect”. Besides, the Survival period in the series on Meth-A sarcoma (dose 3 (mg/kg)) was 48.5 ± 8.7 days; with Meth-A sarcoma (dose 10 (mg/kg)) it was 46.6 ± 7.2 days.

Take `CCCCCCCCCCC[C@@H](CC(=O)N[C@H]1C(O)O[C@H](CO)[C@@H](OS(=O)(=O)O)[C@@H]1OC(=O)CCCCCCCCc1ccccc1)OC(=O)CCCCCCCCc1ccccc1` (stereo partly drawn) [1(c), 2-deoxy-2-[3S-(9-phenylnonanoyloxy)tetradecanoyl]amino-3-O-(9-phenylnonanoyl)-4-O-sulfo-D-glucopyranose]: the fold induction at 1 µg/mL was 30 with lympha cells (compound added to the test system, 1 μg/ml, read-out: amount of tymidine taken into the lympha cells versus the control) and 30 in the series with lympha cells (setting [2]). Also, in the series on Mice L-M cells, the cytotoxicity at 0.01 mg worked out at 86%. The compound also registered an LD50 in series [1] of more than 300 mg/kg. Besides, the Apperarent tumor weight in the series with Meth-A sarcoma (3 mg/kg iv, Day 7) stood at 0.200 ± 0.074 g; with Meth-A sarcoma (3 mg/kg iv, Day 10), 0.240 ± 0.118 g; in the series on Meth-A sarcoma (3 mg/kg iv, Day 13), 0.314 ± 0.206 g; with Meth-A sarcoma (3 mg/kg iv, Day 16) it was 0.580 ± 0.412 g; with Meth-A sarcoma (10 mg/kg iv, Day 7) it was 0.199 ± 0.044 g; with Meth-A sarcoma (10 mg/kg iv, Day 10), 0.156 ± 0.084 g. Also, the Apperarent tumor weight in the series with Meth-A sarcoma (10 mg/kg iv, Day 13) came to 0.120 ± 0.099 g; in the series on Meth-A sarcoma (10 mg/kg iv, Day 16), 0.208 ± 0.253 g. Moreover, the “effect on prolongation of life” value with Meth-A sarcoma (at the dose of 10 mg/kg) is on record as “significant effect”. Further, in the series on Meth-A sarcoma (at the dose of 10 mg/kg), the “effect on tumore regression” value is on record as “significant effect”. Moreover, the Survival period in the series on Meth-A sarcoma (dose 3 (mg/kg)) was determined as 46.8 ± 6.3 days; in the series on Meth-A sarcoma (dose 10 (mg/kg)) it was 62.8 ± 18.8 days.
